What is called melting point is the temperature, or range, at which the solid turns liquid.

SMILES strings stand for the structures.

As to `CC(C)c1[nH]n(-c2c(Cl)cc(Cl)cc2Cl)c2nc(Cc3ccc(NC(=O)OCCCN(C)C)cc3)nc(=O)c1-2` [Example 1, 1-(2,4,6-trichlorophenyl)-3-isopropyl-6-(4-(3-(N,N-dimethylamino)prop-1-yloxycarbonylamino)benzyl)pyrazolo[3,4-d]pyrimidin-4-one], the melting point lay within 200 to 202 °C.
